# Experimental data: patent publication US20170190671A1, “BIS(ARYL)CATECHOL DERIVATIVES AS HERBICIDES” (E I DU PONT DE NEMOURS AND COMPANY, priority 2014, published 2017)
# Assays:
# Type in all cases: in vivo
# [1] = test system: barnyardgrass (Echinochloa crus-galli); assay: Test C flooded paddy; conditions: Flood, scale 0 to 100
# Text: (§1) At time of treatment, test pots were flooded to 3 cm above the soil surface, treated by application of test compounds directly to the paddy water, and then maintained at that water depth for the duration of the test. Treated plants and controls were maintained in a greenhouse for 13 to 15 days, after which time all species were compared to controls and visually evaluated. […] A dash (-) response means no test result.
# [2] = test system: sedge, umbrella (small-flower umbrella sedge, Cyperus difformis); assay: Test C flooded paddy; conditions: Flood, scale 0 to 100
# Text: as §1
# [3] = test system: ducksalad (Heteranthera limosa); assay: Test C flooded paddy; conditions: Flood, scale 0 to 100
# Text: as §1
# rice (Oryza sativa) [4] = assay: Test C flooded paddy; conditions: Flood, scale 0 to 100
# Text: as §1
# [5] = test system: barnyardgrass (Echinochloa crus-galli); assay: Test B flooded paddy; conditions: Echinochloa crus-galli, 336 h; 250 g ai/ha, Flood, 13 to 15 days, scale 0 (no effect) to 100 (complete control); read-out: Plant response rating, Barnyardgrass
# Procedure, shortened: (§2)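 Pots were flooded to 3 cm above the soil surface at treatment, compound applied directly to the paddy water, and that depth held throughout. Plants were kept in a greenhouse for 13 to 15 days, then visually rated against untreated controls.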
# [6] = test system: sedge, umbrella (small-flower umbrella sedge, Cyperus difformis); assay: Test B flooded paddy; conditions: Cyperus difformis, 336 h; 250 g ai/ha, Flood, 13 to 15 days, scale 0 (no effect) to 100 (complete control); read-out: Plant response rating, Sedge, Umbrella
# Procedure, shortened: as §2
# [7] = test system: ducksalad (Heteranthera limosa); assay: Test B flooded paddy; conditions: Heteranthera limosa, 336 h; 250 g ai/ha, Flood, 13 to 15 days, scale 0 (no effect) to 100 (complete control); read-out: Plant response rating, Ducksalad
# Procedure, shortened: as §2
# rice (Oryza sativa) [8] = assay: Test B flooded paddy; conditions: Oryza sativa, 336 h; 250 g ai/ha, Flood, 13 to 15 days, scale 0 (no effect) to 100 (complete control); read-out: Plant response rating, Rice
# Procedure, shortened: as §2
# [9] = test system: barnyardgrass (Echinochloa crus-galli); assay: Test A preemergence; conditions: Echinochloa crus-galli, pre-emergence, 240 h, 0 to 100 scale, read-out: Plant response rating, Barnyardgrass
# Procedure, shortened: (§3)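 Compounds in non-phytotoxic solvent with surfactant applied as soil spray preemergence, or postemergence to plants 2-10 cm at one- to two-leaf stage, in loam/sand. After approximately 10 days in greenhouse, injury rated visually versus untreated controls, 0 (no effect) to 100 (complete control).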
# corn (Zea mays) [10] = assay: Test A preemergence; conditions: 0 to 100 scale
# Procedure, shortened: as §3
# [11] = test system: large (Lg) crabgrass (Digitaria sanguinalis); assay: Test A preemergence; conditions: 0 to 100 scale
# Procedure, shortened: as §3
# [12] = test system: morningglory (Ipomoea spp.); assay: Test A preemergence; conditions: 0 to 100 scale
# Procedure, shortened: as §3
# [13] = test system: pigweed (Amaranthus retroflexus); assay: Test A preemergence; conditions: Amaranthus retroflexus, pre-emergence, 240 h, 0 to 100 scale, read-out: Plant response rating, Pigweed
# Procedure, shortened: as §3
# [14] = test system: giant foxtail (Setaria faberii); assay: Test A preemergence; conditions: Setaria faberi, pre-emergence, 240 h, 0 to 100 scale, read-out: Plant response rating, Foxtail, Giant
# Procedure, shortened: as §3
# [15] = test system: wheat (Triticum aestivum); assay: Test A preemergence; conditions: 0 to 100 scale
# Procedure, shortened: as §3
# [16] = test system: velvetleaf (Abutilon theophrasti); assay: Test A preemergence; conditions: 0 to 100 scale
# Procedure, shortened: as §3
# [17] = test system: barnyardgrass (Echinochloa crus-galli); assay: Test A postemergence; conditions: Echinochloa crus-galli, post-emergence, 240 h, 0 to 100 scale, read-out: Plant response rating, Barnyardgrass
# Procedure, shortened: as §3
# corn (Zea mays) [18] = assay: Test A postemergence; conditions: Zea mays, post-emergence, 240 h, 0 to 100 scale
# Procedure, shortened: as §3
# [19] = test system: large (Lg) crabgrass (Digitaria sanguinalis); assay: Test A postemergence; conditions: 0 to 100 scale
# Procedure, shortened: as §3
# [20] = test system: morningglory (Ipomoea spp.); assay: Test A postemergence; conditions: 0 to 100 scale
# Procedure, shortened: as §3
# [21] = test system: pigweed (Amaranthus retroflexus); assay: Test A postemergence; conditions: Amaranthus retroflexus, post-emergence, 240 h, 0 to 100 scale, read-out: Plant response rating, Pigweed
# Procedure, shortened: as §3
# [22] = test system: giant foxtail (Setaria faberii); assay: Test A postemergence; conditions: Setaria faberi, post-emergence, 240 h, 0 to 100 scale, read-out: Plant response rating, Foxtail, Giant
# Procedure, shortened: as §3
# [23] = test system: wheat (Triticum aestivum); assay: Test A postemergence; conditions: Triticum aestivum, post-emergence, 240 h, 0 to 100 scale, read-out: Plant response rating, Wheat
# Procedure, shortened: as §3
# [24] = test system: velvetleaf (Abutilon theophrasti); assay: Test A postemergence; conditions: 0 to 100 scale
# Procedure, shortened: as §3
smiles,measurement,setting,value
"N#Cc1cccc(Oc2ncc(Br)cn2)c1Oc1ncc(Br)cn1 [Compound 1, 2,3-bis[(5-bromo-2-pyrimidinyl)oxy]benzonitrile]","Plant response rating, Barnyardgrass",[1]; 31 g ai/ha,0
same,"Plant response rating, Barnyardgrass",[1]; 62 g ai/ha,0
same,"Plant response rating, Barnyardgrass",[1]; 125 g ai/ha,0
same,"Plant response rating, Barnyardgrass",[1]; 250 g ai/ha,0
same,"Plant response rating, Sedge, Umbrella",[2]; 31 g ai/ha,0
same,"Plant response rating, Sedge, Umbrella",[2]; 62 g ai/ha,30
same,"Plant response rating, Sedge, Umbrella",[2]; 125 g ai/ha,65
same,"Plant response rating, Sedge, Umbrella",[2]; 250 g ai/ha,80
same,"Plant response rating, Ducksalad",[3]; 31 g ai/ha,0
same,"Plant response rating, Ducksalad",[3]; 62 g ai/ha,0
same,"Plant response rating, Ducksalad",[3]; 125 g ai/ha,50
same,"Plant response rating, Ducksalad",[3]; 250 g ai/ha,80
same,"Plant response rating, Rice",rice (Oryza sativa) [4]; 31 g ai/ha,0
same,"Plant response rating, Rice",rice (Oryza sativa) [4]; 62 g ai/ha,0
same,"Plant response rating, Rice",rice (Oryza sativa) [4]; 125 g ai/ha,0
same,"Plant response rating, Rice",rice (Oryza sativa) [4]; 250 g ai/ha,0
same,pest or weed control at 250 g/ha,[5],40%
same,pest or weed control at 250 g/ha,[6],95%
same,pest or weed control at 250 g/ha,[7],90%
same,plant injury at 250 g/ha,rice (Oryza sativa) [8],0%
same,pest or weed control at 125 g/ha,[9]; 125 g ai/ha,70%
same,pest or weed control at 500 g/ha,[9]; 500 g ai/ha,90%
same,"Plant response rating, Corn",corn (Zea mays) [10]; 125 g ai/ha,20
same,"Plant response rating, Corn",corn (Zea mays) [10]; 500 g ai/ha,60
same,"Plant response rating, Crabgrass, Large",[11]; 125 g ai/ha,100
same,"Plant response rating, Crabgrass, Large",[11]; 500 g ai/ha,100
same,"Plant response rating, Morningglory",[12]; 125 g ai/ha,30
same,"Plant response rating, Morningglory",[12]; 500 g ai/ha,100
same,pest or weed control at 125 g/ha,[13]; 125 g ai/ha,100%
same,pest or weed control at 500 g/ha,[13]; 500 g ai/ha,100%
same,pest or weed control at 125 g/ha,[14]; 125 g ai/ha,90%
same,pest or weed control at 500 g/ha,[14]; 500 g ai/ha,100%
same,"Plant response rating, Wheat",[15]; 125 g ai/ha,20
same,"Plant response rating, Wheat",[15]; 500 g ai/ha,60
same,"Plant response rating, Velvetleaf",[16]; 125 g ai/ha,70
same,"Plant response rating, Velvetleaf",[16]; 500 g ai/ha,100
same,pest or weed control at 125 g/ha,[17]; 125 g ai/ha,70%
same,pest or weed control at 500 g/ha,[17]; 500 g ai/ha,90%
same,"Corn plant response rating (crop injury, 0 = no effect, 100 = complete kill) at 125 g/ha",corn (Zea mays) [18]; 125 g ai/ha,30%
same,"Corn plant response rating (crop injury, 0 = no effect, 100 = complete kill) at 500 g/ha",corn (Zea mays) [18]; 500 g ai/ha,80%
same,"Plant response rating, Crabgrass, Large",[19]; 125 g ai/ha,60
same,"Plant response rating, Crabgrass, Large",[19]; 500 g ai/ha,100
same,"Plant response rating, Morningglory",[20]; 125 g ai/ha,30
same,"Plant response rating, Morningglory",[20]; 500 g ai/ha,30
same,pest or weed control at 125 g/ha,[21]; 125 g ai/ha,100%
same,pest or weed control at 500 g/ha,[21]; 500 g ai/ha,100%
same,pest or weed control at 125 g/ha,[22]; 125 g ai/ha,70%
same,pest or weed control at 500 g/ha,[22]; 500 g ai/ha,90%
same,plant injury at 125 g/ha,[23]; 125 g ai/ha,30%
same,plant injury at 500 g/ha,[23]; 500 g ai/ha,60%
same,"Plant response rating, Velvetleaf",[24]; 125 g ai/ha,70
same,"Plant response rating, Velvetleaf",[24]; 500 g ai/ha,90
